Among the test systems are DMS-114; KM-20L2; DMS-273; SNB-78; XF498; M19-MEL; HOP-18; LXFL 529; RXF 631.
Assay in all cases: DTP human tumour cell line panel, 48 h

The values below come from ChEMBL document CHEMBL1201862, “PubChem BioAssay data set” (2004).

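Following 48 hours of exposure in 96-well plates, responses at five concentrations were used to interpolate endpoints linearly. The concentration for 50% growth inhibition is given as GI50.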 Activity calls are given as the source filed them. No stated cut-off is given here; in the data, active = GI50 up to about 1.1 µM and inactive = higher.

The GI50 is the concentration at which growth is held to half of that of the control. Turning to `C=C1[C@@H](C)[C@H]2[C@H](Cc3ccccc3)NC(=O)[C@]23OC(=O)/C=C/[C@H](O)CCC[C@@H](C)C/C=C/[C@H]3[C@@H]1O`, the GI50 with DMS-114 is 14.5 µM (inactive); with KM-20L2, 15.2 µM (inactive); in the experiment on DMS-273, 8.93 µM (inactive); in the experiment with SNB-78, 1.03 µM (active); with XF498 it was 0.571 µM (active); in the experiment on M19-MEL it was 45.8 µM (inactive). For the same compound, in the experiment with HOP-18, the GI50 was 0.156 µM (active).

For `COc1ccc(CC2C(=O)NC(C)C(=O)N(C)C3C(=O)N(C)C(Cc4ccc(O)c(c4)Oc4ccc(cc4)C3O)C(=O)NC(C)C(=O)NC(C)C(=O)N2C)cc1` (centres undefined), the GI50 is 0.00145 µM (active) in the experiment with DMS-114; 0.0246 µM (active) in the experiment on KM-20L2; 0.0123 µM (active) in the experiment on DMS-273; 0.00188 µM (active) with SNB-78; 0.0131 µM (active) in the experiment with XF498; 0.013 µM (active) in the experiment with M19-MEL. Also, the GI50 with HOP-18 was 0.00195 µM (active).

In the case of `COc1cc(Nc2nc3c(N)cc(C(F)(F)F)cc3nc2-c2ccccc2)cc(OC)c1OC`, the GI50 in the experiment on DMS-114 was 81.8 µM (inactive); in the experiment on KM-20L2, > 65.5 µM (inactive); with DMS-273, 37.9 µM (inactive); with LXFL 529 it was 63.5 µM (inactive); with XF498, 19.1 µM (inactive); with M19-MEL, > 82.2 µM (inactive). For the same compound, the GI50 in the experiment on HOP-18 is 29.8 µM (inactive); with RXF 631 it was > 44.5 µM (inactive).

On to `O=C(O)[C@H](NS(=O)(=O)c1ccc(F)cc1)c1ccccc1`, for which the GI50 with DMS-114, with KM-20L2, in the experiment with DMS-273, in the experiment with SNB-78, with LXFL 529 and in the experiment with XF498 was > 100 µM (inactive) each time. Also, the GI50 with M19-MEL and in the experiment with HOP-18 was > 100 µM (inactive) throughout.

As for `Cc1cc(N(CCC#N)CCC#N)ccc1/C(Sc1ccccc1)=C(\NC(=O)/C=C/c1ccccc1)C(=O)Sc1ccccc1`, the GI50 was 1.54 µM (inactive) in the experiment with DMS-114; 2.14 µM (inactive) with KM-20L2; 6.44 µM (inactive) with DMS-273; 3.33 µM (inactive) in the experiment on SNB-78; 1.57 µM (inactive) in the experiment on LXFL 529; 12 µM (inactive) in the experiment with XF498. Further, the GI50 with M19-MEL is 3.22 µM (inactive); in the experiment on HOP-18, 14 µM (inactive); in the experiment with RXF 631, 2.79 µM (inactive).

Regarding `CC12CC(=O)NN=C1c1ccccc1C2` (centres undefined), the GI50 in the experiment with DMS-114, with KM-20L2, in the experiment on DMS-273, with SNB-78, in the experiment with XF498 and in the experiment with M19-MEL was > 100 µM (inactive) in each case.

Take `COC(=O)C(=NNc1ccccc1[N+](=O)[O-])C(=O)OC`: the GI50 was > 100 µM (inactive) with KM-20L2; > 100 µM (inactive) with DMS-273; > 100 µM (inactive) in the experiment on LXFL 529; 41.2 µM (inactive) with XF498; > 100 µM (inactive) with M19-MEL; > 100 µM (inactive) in the experiment with HOP-18.

For `NNC(=O)N/N=C(/CC1(O)C(=O)Nc2ccc(Br)cc21)c1ccccc1` (centres undefined), the GI50 with KM-20L2 was 27.9 µM (inactive); in the experiment on DMS-273, 28.4 µM (inactive); in the experiment on SNB-78 it was 34.5 µM (inactive); in the experiment on LXFL 529, 23.4 µM (inactive); with XF498 it was 18.9 µM (inactive); in the experiment with M19-MEL, 32.4 µM (inactive). Also, the GI50 in the experiment on RXF 631 was 38.6 µM (inactive).

As to `Cc1nc2ccccc2nc1CC(=O)C(=O)Nc1ccc(Cl)cc1Cl`, the GI50 in the experiment on KM-20L2, in the experiment on DMS-273, in the experiment on SNB-78, in the experiment with LXFL 529, with M19-MEL and in the experiment on RXF 631 was > 100 µM (inactive) throughout.

Consider `CC1OC(OC2C(CO)OC(O[C@H]3CC[C@@]4(C)C(=CC[C@H]5[C@@H]6C[C@@H]7O[C@]8(CC[C@@H](C)CN8)[C@@H](C)[C@@H]7[C@@]6(C)CC[C@@H]54)C3)C(O)C2O)C(O)C(O)C1O` (some centres undefined), for which the GI50 in the experiment with DMS-114 was > 100 µM (inactive); in the experiment on KM-20L2 it was 28.9 µM (inactive); in the experiment on DMS-273 it was > 100 µM (inactive); with SNB-78, > 100 µM (inactive); in the experiment with LXFL 529, > 100 µM (inactive); in the experiment with XF498, > 100 µM (inactive). Moreover, the GI50 is > 100 µM (inactive) in the experiment with M19-MEL and 43.3 µM (inactive) in the experiment on HOP-18.

On to `NC(=O)c1c(-c2ccccc2)c(-c2ccccc2)cc2c(=O)c3ccccc3[nH]c12`, for which the GI50 in the experiment on DMS-114 is 21.8 µM (inactive); in the experiment on KM-20L2, 21 µM (inactive); in the experiment on DMS-273, 19.9 µM (inactive); with SNB-78, 22.3 µM (inactive); with LXFL 529, 16.1 µM (inactive); in the experiment with XF498, 18 µM (inactive). The GI50 with M19-MEL is 27.6 µM (inactive); in the experiment with RXF 631 it was 27.4 µM (inactive).

In the case of `O=C1C2=C(N[C@@H](c3ccccc3)[C@H](c3ccccc3)N2)C(=O)c2ccccc21`, the GI50 in the experiment on DMS-114, in the experiment with DMS-273, in the experiment with SNB-78, in the experiment with LXFL 529, with XF498 and in the experiment on M19-MEL was > 100 µM (inactive) throughout.

For the compound `COc1cc2cccc(/N=C\c3cccc(OC)c3OC(C)C)c2cc1OC`, the GI50 in the experiment with DMS-114 is 17 µM (inactive); with KM-20L2 it was 51.8 µM (inactive); in the experiment with SNB-78, 44.7 µM (inactive); in the experiment with LXFL 529, 14.7 µM (inactive); with XF498, 26.8 µM (inactive); with M19-MEL, 21.3 µM (inactive).

Regarding `COc1ccc([N+]2=NC(c3ccc([N+](=O)[O-])cc3)=NN(c3ccccc3)C2)cc1`, the GI50 is 40.1 µM (inactive) in the experiment on DMS-114; 49.4 µM (inactive) in the experiment on KM-20L2; > 10 µM (inactive) with DMS-273; > 100 µM (inactive) in the experiment with SNB-78; 27.1 µM (inactive) in the experiment with LXFL 529; 55.6 µM (inactive) with XF498.

With `NC(=S)N/N=C(/CCN1CCCC1)CC(C1=C(O)C2=CCCCC2OC1=O)c1ccccc1` (centres undefined), the GI50 with KM-20L2, with SNB-78, with LXFL 529, with XF498, in the experiment with M19-MEL and in the experiment with HOP-18 was > 100 µM (inactive) in each case.

Turning to `Cc1cccc(-n2c(N)c(-c3nc4ccccc4[nH]3)sc2=S)c1`, the GI50 in the experiment on DMS-114 is 22.8 µM (inactive); in the experiment with DMS-273, 20.1 µM (inactive); with LXFL 529, 21 µM (inactive); in the experiment on M19-MEL, 25.8 µM (inactive); with HOP-18, 47.3 µM (inactive).

Turning to `N=C(N)NS(=O)(=O)c1ccc(NC(=O)c2cccc3cc4ccccc4nc23)cc1`, the GI50 with DMS-114 was 97.5 µM (inactive); in the experiment on KM-20L2, > 100 µM (inactive); in the experiment with DMS-273, > 100 µM (inactive); with SNB-78 it was 40.6 µM (inactive); with LXFL 529, 21.7 µM (inactive); in the experiment on XF498 it was 99.5 µM (inactive). Also, in the experiment on M19-MEL, the GI50 is > 100 µM (inactive).

As for `CC(C)=CC(=O)CC(=O)C(=O)Nc1ccc(C)c(C)c1`, the GI50 in the experiment on KM-20L2, in the experiment on DMS-273, with SNB-78, with LXFL 529, with XF498 and in the experiment with M19-MEL was > 100 µM (inactive) in each case. Besides, the GI50 in the experiment with RXF 631 was > 100 µM (inactive).

For the compound `O/N=C1/C(=C/c2ccc(OCc3ccccc3)cc2)CCCC1C(NO)c1ccc(OCc2ccccc2)cc1` (centres undefined), the GI50 in the experiment on KM-20L2 is 8.38 µM (inactive); in the experiment on DMS-273, 13 µM (inactive); with LXFL 529, 12.7 µM (inactive); in the experiment on M19-MEL it was 22.2 µM (inactive); with HOP-18, 33 µM (inactive); in the experiment with RXF 631, 8.47 µM (inactive).

Regarding `O=C(Nc1ccc([N+](=O)[O-])cc1[N+](=O)[O-])C(=O)C(C(=O)c1ccc(Cl)c(Cl)c1)C1OC(=O)c2ccccc21` (centres undefined), the GI50 in the experiment with DMS-114 is 18.1 µM (inactive); in the experiment with KM-20L2, 29.8 µM (inactive); in the experiment with DMS-273, 31 µM (inactive); in the experiment on SNB-78, 21.9 µM (inactive); with LXFL 529, 17.1 µM (inactive); in the experiment with M19-MEL it was 25.1 µM (inactive).

Consider `Nc1c(-c2nc3ccccc3[nH]2)sc(=S)n1-c1ccccc1`, for which the GI50 with DMS-114 was 96.2 µM (inactive); in the experiment on KM-20L2, > 10 µM (inactive); in the experiment with DMS-273, > 100 µM (inactive); with SNB-78, > 100 µM (inactive); in the experiment with LXFL 529, 95.3 µM (inactive); in the experiment on M19-MEL, > 100 µM (inactive). In addition, the GI50 in the experiment with RXF 631 is > 100 µM (inactive).

Take `CC(=O)Nc1[nH]n(C)c(=O)c1-c1nnc(C)s1`: the GI50 with DMS-114, in the experiment on KM-20L2, with DMS-273, in the experiment on SNB-78, with LXFL 529 and in the experiment on XF498 was > 100 µM (inactive) throughout. Further, the GI50 with RXF 631 was > 100 µM (inactive).

As for `NC(=O)c1c[se]c(C2OC(CO)C(O)C2O)n1` (centres undefined), the GI50 in the experiment with DMS-114 is 25.4 µM (inactive); with DMS-273, 3.58 µM (inactive); in the experiment with LXFL 529, 17 µM (inactive); in the experiment with XF498, 8.91 µM (inactive); in the experiment on M19-MEL, 5.28 µM (inactive); in the experiment with HOP-18, > 100 µM (inactive). Besides, the GI50 in the experiment on RXF 631 was 7.6 µM (inactive).

On to `CCCN(CCC)C(=O)Cc1c2n(c3ccccc13)Cc1ccccc1-2`, for which the GI50 in the experiment on DMS-114 was 23.6 µM (inactive); with KM-20L2, > 100 µM (inactive); with DMS-273, 29.1 µM (inactive); with SNB-78, > 100 µM (inactive); in the experiment with LXFL 529, 42.4 µM (inactive); in the experiment on XF498, > 100 µM (inactive). In addition, the GI50 with M19-MEL was 56.6 µM (inactive); in the experiment with HOP-18 it was > 100 µM (inactive).

Regarding `Cc1cn([C@H]2C[C@H](N=[N+]=[N-])[C@@H](CO)O2)c(=O)[nH]c1=O` [ZIDOVUDINE], the GI50 was > 95.5 µM (inactive) in the experiment on DMS-114; > 100 µM (inactive) in the experiment with KM-20L2; > 100 µM (inactive) in the experiment on DMS-273; > 100 µM (inactive) in the experiment on M19-MEL; > 100 µM (inactive) in the experiment on HOP-18.
